Source: patent US20240148821A1, “PHARMACEUTICAL USE OF CYCLIC PEPTIDE COMPOUND” (CHUGAI SEIYAKU KABUSHIKI KAISHA, priority 2021, published 2024)
Numbered stars: 1 amine (or outer) side, 2 acyl side, 3 side chain; on linkers, the order of the positions; unused ones are H or OH. Bridge positions count the residues as written; N and C are the ends. Square brackets hold non-standard residues; d marks the D form. Peptide text beside a SMILES is read from it. * marks the point of attachment. hPhe(3,5-F2-4-CF3) = N[C@@H](CCc1cc(F)c(C(F)(F)F)c(F)c1)C(=O)O; hPhe(3-Cl-4-CF3) = N[C@@H](CCc1ccc(C(F)(F)F)c(Cl)c1)C(=O)O; hPhe(3-F,4-CF3) = N[C@@H](CCc1ccc(C(F)(F)F)c(F)c1)C(=O)O; NMePhe(4-CF3) = CN[C@@H](Cc1ccc(C(F)(F)F)cc1)C(=O)O; hPhe(4-CF3) = N[C@@H](CCc1ccc(C(F)(F)F)cc1)C(=O)O; NEtPhe(4-Me) = CCN[C@@H](Cc1ccc(C)cc1)C(=O)O; NMePhe(4-Cl) = CN[C@@H](Cc1ccc(Cl)cc1)C(=O)O; NMePhe(4-Me) = CN[C@@H](Cc1ccc(C)cc1)C(=O)O; NMedβ3hAla = C[C@H](CC(=O)[*:2])N(C)[*:1]; NMeGly(cPent) = CN[C@H](C(=O)O)C1CCCC1; NMeCha = CN[C@@H](CC1CCCCC1)C(=O)O; Hyp = O=C(O)[C@@H]1C[C@@H](O)CN1; NMeAhp(2) = CCCCC[C@H](NC)C(=O)O; NMeChg = CN[C@H](C(=O)O)C1CCCCC1; NMeF = CN[C@@H](Cc1ccccc1)C(=O)O; NMeI = CC[C@H](C)[C@H](NC)C(=O)O; NMeT = CN[C@H](C(=O)O)[C@@H](C)O; N(CH2CH2)2CF2 = FC1(F)CCN(*)CC1; NMeD = CN[C@@H](CC(=O)O)C(=O)O; NMeL = CN[C@@H](CC(C)C)C(=O)O; NMeV = CN[C@H](C(=O)O)C(C)C; d(β3hA) = C[C@@H](N)CC(=O)O; Azetidin(1-yl) = C1CN(*)C1; Pip = O=C(O)[C@@H]1CCCCN1; Morpholide = C1CN(*)CCO1; NMeA = CN[C@@H](C)C(=O)O; NMeAib = CNC(C)(C)C(=O)O; Nle = CCCC[C@H](N)C(=O)O; Piperidide = C1CCN(*)CC1; dNMeA = CN[C@H](C)C(=O)O; Ac5c = NC1(C(=O)O)CCCC1; Aze = O=C(O)[C@@H]1CCN1; Cyclobutyl = C1CC(*)C1; Sar = CNCC(=O)O

Columns and labels:
[1] = tested on: Human pancreatic cancer cell line AsPC-1 (G12D mutation Kras); assay: AsPC-1 cell growth inhibition (AsPC-1 CGI); type: cell-based; details: read-out: AsPC-1 cell growth inhibition, 50% growth inhibitory concentration (IC50 value); 96 hours, CellTiter-Glo, values classified in ranges
Method: Test compounds were serially dilated with dimethyl sulfoxide, and 200 nL was then dispensed to a U-bottom 96-well plate using Labcyte Echo. […] The cell suspension was dispensed to a. plate containing a test compound at 100 μL per well and incubated at 37° C. in a 5% carbon dioxide gas incubator. 96 hours later, 80 μL of CellTiter-Glo (Promega) was added to each well and fluorescence was measured.

[2] = target: protein-protein interaction between Kras and SOS1 (biotin-tagged human Kras loaded with GDP, His-tagged human SOS1) (Homo sapiens (Human), UniProt P01116, G12D); assay: Protein-protein interaction inhibition between Kras and SOS1 (KrasG12D-SOS PPI) using AlphaScreen; type: biochemical; details: AlphaScreen; biotin-tagged human Kras loaded with GDP, His-tagged human SOS1; read-out: KRAS G12D-SOS PPI IC50;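 further: kras produced in E. coli, Ni-coupled donor beads and streptavidin acceptor beads, excitation 680 nm with emission detected at 520–620 nm via singlet oxygen transfer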

SMILES | IC50 [1] [µM] | IC50 [2] [µM]
CC[C@H](C)[C@@H]1NC(=O)[C@H](CC(C)C)N(C)C(=O)C[C@@H](C(=O)N2CCOCC2)N(C)C(=O)[C@H]([C@@H](C)CC)N(C)C(=O)C2(CCCC2)NC(=O)[C@@H]2CCCN2C(=O)[C@H](CCc2ccc(C(F)(F)F)c(Cl)c2)NC(=O)CN(C)C(=O)[C@H](CC2CCCCC2)N(C)C(=O)[C@@H]2CCN2C(=O)[C@H](C)N(C)C1=O [Compound 40] ([NMeL]I[NMeA][Aze][NMeCha][Sar][hPhe(3-Cl-4-CF3)]P[Ac5c][NMeI][NMeD]-Morpholide; lactam N-11) | ≤ 0.02 | 0.00096
CC(C)C[C@H]1C(=O)N[C@@H](COC2CCC2)C(=O)N(C)[C@@H](C)C(=O)N2CC[C@H]2C(=O)N(C)[C@@H](CC2CCCCC2)C(=O)N(C)CC(=O)N[C@@H](CCc2ccc(C(F)(F)F)c(Cl)c2)C(=O)N2CCC[C@H]2C(=O)NC2(CCCC2)C(=O)N(C)[C@@H](C(C)C)C(=O)N(C)[C@H](C(=O)N2CCCCC2)CC(=O)N1C [Compound 45] ([NMeL]S(Cyclobutyl)[NMeA][Aze][NMeCha][Sar][hPhe(3-Cl-4-CF3)]P[Ac5c][NMeV][NMeD]-Piperidide; lactam N-11) | > 0.5 | 0.084
CC[C@H](C)[C@@H]1NC(=O)[C@H](CC(C)C)N(C)C(=O)C[C@@H](C(=O)N2CCOCC2)N(C)C(=O)[C@H]([C@@H](C)CC)N(C)C(=O)C2(CCCC2)NC(=O)[C@@H]2CCCN2C(=O)[C@H](CCc2ccc(C(F)(F)F)c(F)c2)NC(=O)CN(C)C(=O)[C@H](Cc2ccc(C)cc2)N(C)C(=O)[C@@H]2CCN2C(=O)[C@H](C)N(C)C1=O [Compound 47] ([NMeL]I[NMeA][Aze][NMePhe(4-Me)][Sar][hPhe(3-F,4-CF3)]P[Ac5c][NMeI][NMeD]-Morpholide; lactam N-11) | ≤ 0.02 | 0.0015
CCCCC[C@H]1C(=O)N[C@@H]([C@@H](C)CC)C(=O)N[C@@H](C)C(=O)N2CC[C@H]2C(=O)N(C)[C@@H](Cc2ccc(C(F)(F)F)cc2)C(=O)N(C)CC(=O)N[C@@H](CCc2ccc(C(F)(F)F)c(Cl)c2)C(=O)N2CCC[C@H]2C(=O)NC2(CCCC2)C(=O)N(C)[C@@H]([C@@H](C)CC)C(=O)N(C)[C@H](C(=O)N2CCOCC2)CC(=O)N1C [Compound 54] ([NMeAhp(2)]IA[Aze][NMePhe(4-CF3)][Sar][hPhe(3-Cl-4-CF3)]P[Ac5c][NMeI][NMeD]-Morpholide; lactam N-11) | ≤ 0.02 | 0.0019
CC[C@H](C)[C@@H]1NC(=O)[C@H](CC(C)C)N(C)C(=O)C[C@@H](C(=O)N2CCC2)N(C)C(=O)[C@H](C2CCCC2)N(C)C(=O)C2(CCCC2)NC(=O)[C@@H]2CCCN2C(=O)[C@H](CCc2cc(F)c(C(F)(F)F)c(F)c2)NC(=O)CN(C)C(=O)[C@H](Cc2ccc(C)cc2)N(CC)C(=O)[C@@H]2CCN2C(=O)[C@H](C)N(C)C1=O [Compound 55] ([NMeL]I[NMeA][Aze][NEtPhe(4-Me)][Sar][hPhe(3,5-F2-4-CF3)]P[Ac5c][NMeGly(cPent)][NMeD]-{Azetidin(1-yl)}; lactam N-11) | ≤ 0.02 | 0.00077
CC[C@H](C)[C@@H]1NC(=O)[C@H](C)N(C)C(=O)C[C@@H](C)NC(=O)[C@H](CC(C)C)N(C)C(=O)C2(CCCC2)NC(=O)[C@H](CC(C)C)N(C)C(=O)[C@H](CCc2ccc(C(F)(F)F)c(Cl)c2)NC(=O)CN(C)C(=O)[C@H](CC2CCCCC2)N(C)C(=O)CN(C)C(=O)CN(C)C1=O [Compound 61] (cyclo([Ac5c][NMeL][d(β3hA)][NMeA]I[Sar][Sar][NMeCha][Sar][hPhe(3-Cl-4-CF3)][NMeL])) | > 0.5 | 0.016
CCO[C@@H]1C[C@H]2C(=O)NC3(CCCC3)C(=O)N(C)[C@@H](C3CCCC3)C(=O)N(C)[C@H](C)CC(=O)N(C)[C@@H](CC(C)C)C(=O)N[C@@H]([C@@H](C)CC)C(=O)N(C)CC(=O)N(C)CC(=O)N(C)[C@@H](Cc3ccc(C(F)(F)F)cc3)C(=O)N(C)CC(=O)N[C@@H](CCc3cc(F)c(C(F)(F)F)c(F)c3)C(=O)N2C1 [Compound 66] (cyclo([Ac5c][NMeGly(cPent)][NMedβ3hAla][NMeL]I[Sar][Sar][NMePhe(4-CF3)][Sar][hPhe(3,5-F2-4-CF3)][Hyp](Et))) | ≤ 0.02 | 0.0036
CCCC[C@@H]1NC(=O)C(C)(C)N(C)C(=O)[C@H](CC(C)C)NC(=O)[C@H](CCc2ccc(C(F)(F)F)c(F)c2)NC(=O)CN(C)C(=O)[C@H](Cc2ccc(Cl)cc2)N(C)C(=O)CN(C)C(=O)CN(C)C(=O)[C@H]([C@@H](C)CC)NC(=O)[C@H](CC(C)C)N(C)C(=O)C[C@@H](C)N(C)C1=O [Compound 83] (cyclo(I[Sar][Sar][NMePhe(4-Cl)][Sar][hPhe(3-F,4-CF3)]L[NMeAib][Nle][NMedβ3hAla][NMeL])) | > 0.5 | 0.11
CC[C@H](C)[C@@H]1NC(=O)[C@H](CC(C)C)N(C)C(=O)C[C@@H](C(=O)N2CCCCC2)N(C)C(=O)[C@H](CC2CCCCC2)N(C)C(=O)C2(CCCC2)NC(=O)[C@@H]2CCCN2C(=O)[C@H](CCc2ccc(C(F)(F)F)c(Cl)c2)NC(=O)CN(C)C(=O)[C@H](CC2CCCCC2)N(C)C(=O)[C@@H]2CCN2C(=O)[C@H](C)N(C)C1=O [Compound 87] ([NMeL]I[NMeA][Aze][NMeCha][Sar][hPhe(3-Cl-4-CF3)]P[Ac5c][NMeCha][NMeD]-Piperidide; lactam N-11) | > 0.5 | 0.045
CC[C@H](C)[C@@H]1NC(=O)[C@H]([C@@H](C)O)N(C)C(=O)C[C@@H](C(=O)N2CCCCC2)N(C)C(=O)[C@H](C(C)C)N(C)C(=O)C2(CCCC2)NC(=O)[C@@H]2CCCN2C(=O)[C@H](CCc2ccc(C(F)(F)F)c(Cl)c2)NC(=O)CN(C)C(=O)[C@H](CC2CCCCC2)N(C)C(=O)[C@@H]2CCN2C(=O)[C@H](C)N(C)C1=O [Compound 91] ([NMeT]I[NMeA][Aze][NMeCha][Sar][hPhe(3-Cl-4-CF3)]P[Ac5c][NMeV][NMeD]-Piperidide; lactam N-11) | > 0.5 | 0.0015
CC[C@H](C)[C@@H]1NC(=O)[C@H](CC(C)C)N(C)C(=O)C[C@@H](C(=O)N(C)C)NC(=O)[C@H](C(C)C)N(C)C(=O)C2(CCCC2)NC(=O)[C@H](CC(=O)N2CCC(F)(F)CC2)N(C)C(=O)[C@H](CCc2ccc(C(F)(F)F)c(Cl)c2)NC(=O)CN(C)C(=O)[C@H](CC2CCCCC2)N(C)C(=O)CN(C)C(=O)CN(C)C1=O [Compound 97] ([NMeL]I[Sar][Sar][NMeCha][Sar][hPhe(3-Cl-4-CF3)][NMeD](N(CH2CH2)2CF2)[Ac5c][NMeV]D-NMe2; lactam N-11) | > 0.5 | 0.04
CCCC[C@@H]1NC(=O)[C@H](CCc2ccc(C(F)(F)F)c(Cl)c2)NC(=O)CN(C)C(=O)[C@H](Cc2ccc(Cl)cc2)N(C)C(=O)[C@@H]2CCN2C(=O)[C@H](C)N(C)C(=O)[C@H]([C@@H](C)CC)NC(=O)[C@@H]2CCCCN2C(=O)C[C@@H](C(=O)N2CCCCC2)N(C)C(=O)[C@H](CC(C)C)NC(=O)C(C)(C)N(C)C1=O [Compound 103] ([Pip]I[NMeA][Aze][NMePhe(4-Cl)][Sar][hPhe(3-Cl-4-CF3)][Nle][NMeAib]L[NMeD]-Piperidide; lactam N-11) | > 0.5 | 0.022
CC[C@H](C)[C@@H]1NC(=O)[C@H](C)N(C)C(=O)C[C@@H](C(=O)N2CCCCC2)N(C)C(=O)[C@H](C(C)C)N(C)C(=O)C2(CCCC2)NC(=O)[C@@H]2CCCN2C(=O)[C@H](CCc2ccc(C(F)(F)F)c(Cl)c2)NC(=O)[C@@H](C)N(C)C(=O)[C@H](CC2CCCCC2)N(C)C(=O)[C@@H]2CCN2C(=O)CN(C)C1=O [Compound 115] ([NMeA]I[Sar][Aze][NMeCha][dNMeA][hPhe(3-Cl-4-CF3)]P[Ac5c][NMeV][NMeD]-Piperidide; lactam N-11) | > 0.5 | 0.006
CC[C@H](C)[C@@H]1NC(=O)[C@H](CC(C)C)N(C)C(=O)C[C@@H](C(=O)N2CCCCC2)N(C)C(=O)[C@H](C2CCCCC2)N(C)C(=O)C2(CCCC2)NC(=O)[C@H]([C@@H](C)O)N(C)C(=O)[C@H](CCc2ccc(C(F)(F)F)c(Cl)c2)NC(=O)CN(C)C(=O)[C@H](CC2CCCCC2)N(C)C(=O)CN(C)C(=O)CN(C)C1=O [Compound 118] ([NMeL]I[Sar][Sar][NMeCha][Sar][hPhe(3-Cl-4-CF3)][NMeT][Ac5c][NMeChg][NMeD]-Piperidide; lactam N-11) | > 0.5 | 0.0019
CC[C@H](C)[C@@H]1NC(=O)[C@H](CC(C)C)N(C)C(=O)C[C@@H](C(=O)N2CCCCC2)N(C)C(=O)[C@H](C2CCCC2)N(C)C(=O)C2(CCCC2)NC(=O)[C@@H]2CCCN2C(=O)[C@H](CCc2ccc(C(F)(F)F)c(Cl)c2)NC(=O)CN(C)C(=O)[C@H](Cc2ccc(Cl)cc2)N(C)C(=O)[C@@H]2CCN2C(=O)[C@H](C)N(C)C1=O [Compound 120] ([NMeL]I[NMeA][Aze][NMePhe(4-Cl)][Sar][hPhe(3-Cl-4-CF3)]P[Ac5c][NMeGly(cPent)][NMeD]-Piperidide; lactam N-11) | ≤ 0.02 | 0.00055
CC[C@H](C)[C@@H]1NC(=O)[C@H](CC(C)C)N(C)C(=O)C[C@@H](C)NC(=O)[C@H](C(C)C)N(C)C(=O)[C@H](Cc2ccccc2)N(C)C(=O)[C@H](CC(C)C)N(C)C(=O)[C@H](CCc2ccc(C(F)(F)F)cc2)NC(=O)CN(C)C(=O)[C@H](Cc2ccc(Cl)cc2)N(C)C(=O)CN(C)C(=O)CN(C)C1=O [Compound 124] (cyclo(I[Sar][Sar][NMePhe(4-Cl)][Sar][hPhe(4-CF3)][NMeL][NMeF][NMeV][d(β3hA)][NMeL])) | > 0.5 | 0.14
